Experiments:
[1] = tested on: Hippocampal Cultures; experiment: Neuroprotection from hydrogen peroxide (oxidative stress), propidium iodide assay; assay type: cell-based; settings: Rattus norvegicus; 10 μM hydrogen peroxide, hippocampal cultures, 4 hour test period; read-out: NP from Hydrogen Peroxide PI EC50
Description: Cell cultures: All compounds are screened with dissociated hippocampal cultures derived from embryonic day 18 rats as the primary test system. With this preparation, primary neurons are used to test for toxicity as well as neuroprotection in a highly relevant experimental system to epilepsy. In brief, hippocampal tissue are obtained commercially through Brain Bits (Springfield, Ill.) and cultures prepared as previously described by Brewer (Brewer, G. J. Serum-free B27/neurobasal medium supports differentiated growth of neurons from the striatum, substantia nigra, septum, cerebral cortex, cerebellum and dentate gyms, J. Neurosci. Res. 1995, 42, 674-683). The hippocampal neurons are platted at low density (10,000 cell/well) in a 96-well format and maintained in serum-free medium consisting of Neurobasal Medium supplemented with B27 and GlutaMAX (Gibco). Pre-coated poly-L-lysine coated plates are used because of the preferential adherence and survival of hippocampal neurons on this matrix support.
Potent neuroprotection is the distinguishing characteristic that separates this program's anticonvulsants from all other commercial drugs for epilepsy. The experimental details and the rationale for the implemented assays are essential in differentiating these compounds from that of others. The central objective of all neuroprotective assays was their relevancy to excitotoxicity and oxidative stress related to epilepsy. Both the amount of glutamate and hydrogen peroxide used in the assays, as well as the time of treatment and duration of the experiment, were designed to be relevant to epilepsy. Further, all time parameters employed in these studies were empirically determined to be within the limits of reversible toxic events, yet using amounts of glutamate and hydrogen peroxide that were relevant to the disease. In regard to glutamate toxicity, a critical feature was the duration of treatment of the hippocampal neurons. The rational for using a short 5 min treatment with glutamate was based on the observation of Randall and Thayer (Randall, R. D.; Thayer, S. A. Glutamate-induced calcium transient triggers calcium overload and neurotoxicity in rat hippocampal neurons, J. Neurosci. 1992, 12, 1882-1895). […] The rationale is that this intense burst of glutamate and resulting calcium overload is relevant to seizures and therefore was important data to capture in the screening assay. The amount of glutamate (30 μM) employed in our screening was based on the basal levels of glutamate observed in microdialysis measurements of hippocampus from epileptogenic patients (Cavus et al. Decreased hippocampal volume on MRI is associated with increased extracellular glutamate in epilepsy patients, Epilepsia, 2008, 49, 1358-1366). In regard to hydrogen peroxide, the amount employed (10 μM) was detected in the hippocampus of rats after kainate-induced status epilepticus (Jarrett et. al., Mitochondrial DNA damage and impaired base excision repair during epileptogenesis, Neurobiol. Dis. 2008, 30, 130-138). To produce neural damage and death with these amounts of glutamate and hydrogen peroxide, the cultures were changed to a medium with significant depletion of antioxidant components in the defined medium supplement B-27 just prior to treatment with the compounds. This was performed to obtain a significant and reproducible toxic signal in the hippocampal neurons and because loss of antioxidant control may be a component of epileptogenesis (Waldbaum and Patel, Mitochondria, oxidative stress and temporal lobe epilepsy, Epilepsy Res. 2010 88, 23-45; Wu et al., Mitochondrial DNA mutation-elicited oxidative stress, oxidative damage, and altered gene expression in cultured cells of patients with MERRF syndrome, Mol. Neurobiol. 2010, 41, 256-266). Neuroprotection studies with hydrogen peroxide were conducted with cultures that were between day 12 and day 18. Studies of neuroprotection glutamate were conducted between day 19 and day 22. […]

[2] = tested on: Hippocampal Cultures; experiment: Neuroprotection from heavy metal toxicity, propidium iodide assay; assay type: cell-based; settings: Rattus norvegicus, read-out: Neuroprotection EC50 PI
Description: All compounds were screened with dissociated hippocampal cultures derived from embryonic day 18 rats as the primary test system. With this preparation, primary neurons were used to test for prevention of heavy metal toxicity by the disclosed compounds. In brief, hippocampal tissue was obtained commercially through Brain Bits (Springfield, Ill.) and cultures prepared as previously described (Brewer, G. J. Serum-free B27/neurobasal medium supports differentiated growth of neurons from the striatum, substantia nigra, septum, cerebral cortex, cerebellum and dentate gyms, J. Neurosci. Res., 1995, 42, 674-683). The hippocampal neurons were platted at low density (10,000 cell/well) in a 96-well format and maintained in serum-free medium consisting of Neurobasal Medium supplemented with B27 and GlutaMAX (Gibco). Pre-coated poly-L-lysine coated plates are used because of the preferential adherence and survival of hippocampal neurons on this matrix support. Heavy metal toxicity is associated with the occurrence of seizures ([…] et al. Zinc and copper: pharmacological probes and endogenous modulators of neuronal excitability. Pharmacol. Ther. 2006, 111, 567-583). Therefore, the heavy metal toxicity studies serve as another example of the oxidative stress that the disclosed compounds have a protection action against. To establish the dose-dependency of test agents, day 18 hippocampal cultures were utilized to study the toxicity produced after treatment with the heavy metals and neuroprotection after treatment with test compounds. Serving as examples of heavy metal salts for these studies are the following: […] Prior to treatment, the B27/Neural Basal media of the cultures were replaced with B27 neural basal medium without antioxidants for 18 hours. […] Further, the removal of antioxidants in the medium was performed to obtain a significant and reproducible toxic signal for heavy metal treatment of the hippocampal neurons. At the conclusion of the 4 hour test period, the cultures are also tested for the amount of cell death as measured by the propidium iodide method. […] After removal of the growth medium, 50 μl of the 50 μM PI solution is added to cultures and allowed to incubate in the dark at room temperature for 15 min. The cultures are then assessed for fluorescence intensity at Ex536/Em590 nm in a CytoFluor fluorimeter. Results are expressed in relative fluorescent units. […] The test compound is added to the hippocampal cultures at concentrations that range from […] to […]. The incubation period is for four hours followed by the measurement of fluorescence at Ex536/Em590 nm in a CytoFluor fluorimeter. Results are expressed in relative fluorescent units. Background fluorescence was subtracted from values obtained from wells without cells.

| SMILES | EC50 [1] [nM] | EC50 ([2]; Cobalt Chloride hexahydrate 10 μM) [nM] | EC50 ([2]; Copper Acetate monohydrate 10 μM) [nM] | EC50 ([2]; Iron sulfate hexahydrate 10 μM) [nM] | EC50 ([2]; Nickel Chloride hexahydrate 10 μM) [nM] | EC50 ([2]; Zinc Acetate dehydrate 1 μM) [nM] |
| --- | --- | --- | --- | --- | --- | --- |
| NS(=O)(=O)NCC(F)(F)c1ccccc1F [Example 1, 2,2-Difluoro-2-(2-fluorophenyl)-ethyl-1-sulfamide] | 1 | 0.1 | 0.1 | 0.01 | 0.1 | 0.01 |
| NS(=O)(=O)NCC(F)(F)c1ccccc1Cl [Example 2, 2,2-Difluoro-2-(2-chlorophenyl)-ethyl-1-sulfamide] | 0.1 | – | – | – | – | – |
